Values quoted from earlier work as cited in patent US20050020589A1, “Sustained-release tablet composition comprising a dopamine receptor agonist” (Pfizer Inc., priority 2003, published 2005).

(R)-5,6-dihydro-5-(methylarnino)-4H-imidazo[4,5-ij]-quinolin-2(1H)-one (Z)-2-butenedioate (1:1) [maleate salt of sumanirole]
Solubility: highly soluble
